In publication PMC11707430, “Novel antibiotics against Staphylococcus aureus without detectable resistance by targeting proton motive force and FtsH” (MedComm, 2025):
Converted amounts (≈) assume the structure as drawn.

Assays:
E. faecalis = test: MIC determination by microbroth dilution; format: cell-based; conditions: Enterococcus faecalis
Experimental: (§1) Minimal inhibitory concentration (MIC) determination. The detection of MIC was performed by the microbroth dilution method with reference to the previously report by Wang et al^2. Briefly, the fresh bacterial suspension was adjusted to a McF standard equivalent of 0.5 (~1.5 × 10^8 CFU/mL) and then 100-fold diluted with MH broth. Fifty microliters of bacterial suspension with equal volume of serially diluted compounds (1-128 µg/mL) were added into a 96-well cell plate (Corning Costar, the United States) and incubated at 37°C for 16-18 h. The bacterial suspension without compounds was used as a negative control. The lowest concentration that inhibited visible bacterial growth was considered as the value of MIC.

K. pneumoniae = test: MIC determination by microbroth dilution; format: cell-based; conditions: Klebsiella pneumoniae, ATCC700603; ATCC 700603
Experimental: as §1

S. aureus ATCC 43300 = test: Consecutive resistance inducing assay; format: cell-based; conditions: sub-MIC (1/2×MIC), after 20 days of treatment
Experimental: Resistance inducing assay. Consecutive and one-step resistance experiments were performed to assess the resistance-inducing ability of the compounds against S. aureus. For consecutive resistance assay, the MICs of compounds and ciprofloxacin (CIP) were determined on the first day. […] […] […] And the antimicrobial activity of the compounds against the CIP-induced strains were assessed by microdilution assay as described above. For one-step resistance assay, overnight cultured S. aureus was adjusted to a final concentration of approximately OD630=0.5 with sterile saline. One hundred microliters of the bacterial suspension were uniformly spread in pre-prepared MH agar plates containing a specific concentration of compounds. Rifampicin (RFP) was used as a positive control. The viable cells were counted on the plates after incubation at 37°C for 48h. The frequency of spontaneous drug resistance mutation was defined as the ratio of the number of resistant CFU counts to the initial CFU counts^3.

TA 100 = test: Ames test; format: cell-based, Salmonella typhimurium
Experimental: (§2) Ames test. Genotoxicity of the compounds was determined by Ames Kit (IPHASE, Beijing, China) containing Salmonella typhimurium (TA97a, TA98, TA100, and TA1535) and E. coli WP2 uvrA (pKM101). Diclofenac and 2-aminofluorene were used as positive controls for TA97a and TA98. Methyl methanesulfonate and 2-aminofluorene were used as positive controls for TA100. Methyl methanesulfonate and 2-aminoanthracene were used as positive controls for WP2 uvrA (pKM101). NaN3 and 2-aminoanthracene were used as positive controls for TA1535. The bottom and top layer culture medium, and S9 mixed solution were prepared according to the manufacturer’s instructions. After incubation at 37℃ for 48h, the colonies were counted.

TA 1535 = test: Ames test; format: cell-based, Salmonella typhimurium
Experimental: as §2

TA 97a = test: Ames test; format: cell-based, Salmonella typhimurium
Experimental: as §2

TA 98 = test: Ames test; format: cell-based, Salmonella typhimurium
Experimental: as §2

WP2uvrA (pKM101) = test: Ames test; format: cell-based, E. coli
Experimental: as §2

Cc1nc2c(-c3ccc(Cl)cc3)cnn2c(O)c1Cc1ccccc1 [STK848198]
MIC (E. faecalis; ATCC29212, ATCC 29212): 4 µg/mL (≈ 11.4 µM) | MIC (E. faecalis; ATCC51299, ATCC 51299, vancomycin resistant strain): 4 µg/mL (≈ 11.4 µM) | MIC (K. pneumoniae): > 32 µg/mL | MIC increasement after sub-MIC treatment (S. aureus ATCC 43300): 0 fold | CFU(x±SD) (TA 100; TA 100, +S9, 25 μg/well): 8 ±2 CFU | Fold Change (TA 100; TA 100, +S9, 25 μg/well): 0.2 | CFU(x±SD) (TA 100; TA 100, +S9, 50 μg/well): 7 ±1 CFU | Fold Change (TA 100; TA 100, +S9, 50 μg/well): 0.2 | CFU(x±SD) (TA 100; TA 100, +S9, 100 μg/well): 9 ±3 CFU | Fold Change (TA 100; TA 100, +S9, 100 μg/well): 0.3 | CFU(x±SD) (TA 100; TA 100, +S9, 200 μg/well): 8±3 CFU | Fold Change (TA 100; TA 100, +S9, 200 μg/well): 0.2 | CFU(x±SD) (TA 100; TA 100, +S9, 400 μg/well): 8 ±2 CFU | Fold Change (TA 100; TA 100, +S9, 400 μg/well): 0.2 | CFU(x±SD) (TA 100; TA 100, -S9, 25 μg/well): 5±2 CFU | Fold Change (TA 100; TA 100, -S9, 25 μg/well): 0.2 | CFU(x±SD) (TA 100; TA 100, -S9, 50 μg/well): 6±2 CFU | Fold Change (TA 100; TA 100, -S9, 50 μg/well): 0.2 | CFU(x±SD) (TA 100; TA 100, -S9, 100 μg/well): 5±2 CFU | Fold Change (TA 100; TA 100, -S9, 100 μg/well): 0.1 | CFU(x±SD) (TA 100; TA 100, -S9, 200 μg/well): 9±3 CFU | Fold Change (TA 100; TA 100, -S9, 200 μg/well): 0.3 | CFU(x±SD) (TA 100; TA 100, -S9, 400 μg/well): 4±2 CFU | Fold Change (TA 100; TA 100, -S9, 400 μg/well): 0.1 | CFU(x±SD) (TA 1535; TA 1535, +S9, 25 μg/well): 2±1 CFU | Fold Change (TA 1535; TA 1535, +S9, 25 μg/well): 0.9 | CFU(x±SD) (TA 1535; TA 1535, +S9, 50 μg/well): 2±1 CFU | Fold Change (TA 1535; TA 1535, +S9, 50 μg/well): 0.9 | CFU(x±SD) (TA 1535; TA 1535, +S9, 100 μg/well): 2±1 CFU | Fold Change (TA 1535; TA 1535, +S9, 100 μg/well): 1 | CFU(x±SD) (TA 1535; TA 1535, +S9, 200 μg/well): 2±1 CFU | Fold Change (TA 1535; TA 1535, +S9, 200 μg/well): 0.7 | CFU(x±SD) (TA 1535; TA 1535, +S9, 400 μg/well): 2±1 CFU | Fold Change (TA 1535; TA 1535, +S9, 400 μg/well): 0.7 | CFU(x±SD) (TA 1535; TA 1535, -S9, 25 μg/well): 2±1 CFU | Fold Change (TA 1535; TA 1535, -S9, 25 μg/well): 0.9 | CFU(x±SD) (TA 1535; TA 1535, -S9, 50 μg/well): 2±2 CFU | Fold Change (TA 1535; TA 1535, -S9, 50 μg/well): 1 | CFU(x±SD) (TA 1535; TA 1535, -S9, 100 μg/well): 2±2 CFU | Fold Change (TA 1535; TA 1535, -S9, 100 μg/well): 1 | CFU(x±SD) (TA 1535; TA 1535, -S9, 200 μg/well): 1±1 CFU | Fold Change (TA 1535; TA 1535, -S9, 200 μg/well): 0.6 | CFU(x±SD) (TA 1535; TA 1535, -S9, 400 μg/well): 1±1 CFU | Fold Change (TA 1535; TA 1535, -S9, 400 μg/well): 0.6 | CFU(x±SD) (TA 97a; +S9, 25 μg/well): 6±5 CFU | Fold Change (TA 97a; +S9, 25 μg/well): 0.3 | CFU(x±SD) (TA 97a; +S9, 50 μg/well): 6±2 CFU | Fold Change (TA 97a; +S9, 50 μg/well): 0.2 | CFU(x±SD) (TA 97a; +S9, 100 μg/well): 4±4 CFU | Fold Change (TA 97a; +S9, 100 μg/well): 0.2 | CFU(x±SD) (TA 97a; +S9, 200 μg/well): 4±1 CFU | Fold Change (TA 97a; +S9, 200 μg/well): 0.2 | CFU(x±SD) (TA 97a; +S9, 400 μg/well): 5±2 CFU | Fold Change (TA 97a; +S9, 400 μg/well): 0.2 | CFU(x±SD) (TA 97a; -S9, 25 μg/well): 14±2 CFU | Fold Change (TA 97a; -S9, 25 μg/well): 0.6 | CFU(x±SD) (TA 97a; -S9, 50 μg/well): 11±1 CFU | Fold Change (TA 97a; -S9, 50 μg/well): 0.4 | CFU(x±SD) (TA 97a; -S9, 100 μg/well): 8±2 CFU | Fold Change (TA 97a; -S9, 100 μg/well): 0.3 | CFU(x±SD) (TA 97a; -S9, 200 μg/well): 10±4 CFU | Fold Change (TA 97a; -S9, 200 μg/well): 0.4 | CFU(x±SD) (TA 97a; -S9, 400 μg/well): 4±3 CFU | Fold Change (TA 97a; -S9, 400 μg/well): 0.2 | CFU(x±SD) (TA 98; TA 98, +S9, 25 μg/well): 6 ±1 CFU | Fold Change (TA 98; TA 98, +S9, 25 μg/well): 0.9 | CFU(x±SD) (TA 98; TA 98, +S9, 50 μg/well): 5 ±1 CFU | Fold Change (TA 98; TA 98, +S9, 50 μg/well): 0.8 | CFU(x±SD) (TA 98; TA 98, +S9, 100 μg/well): 4 ±1 CFU | Fold Change (TA 98; TA 98, +S9, 100 μg/well): 0.7 | CFU(x±SD) (TA 98; TA 98, +S9, 200 μg/well): 5 ±1 CFU | Fold Change (TA 98; TA 98, +S9, 200 μg/well): 0.7 | CFU(x±SD) (TA 98; TA 98, +S9, 400 μg/well): 4 ±0 CFU | Fold Change (TA 98; TA 98, +S9, 400 μg/well): 0.6 | CFU(x±SD) (TA 98; TA 98, -S9, 25 μg/well): 5±3 CFU | Fold Change (TA 98; TA 98, -S9, 25 μg/well): 0.8 | CFU(x±SD) (TA 98; TA 98, -S9, 50 μg/well): 5±1 CFU | Fold Change (TA 98; TA 98, -S9, 50 μg/well): 0.8 | CFU(x±SD) (TA 98; TA 98, -S9, 100 μg/well): 3±2 CFU | Fold Change (TA 98; TA 98, -S9, 100 μg/well): 0.5 | CFU(x±SD) (TA 98; TA 98, -S9, 200 μg/well): 1±2 CFU | Fold Change (TA 98; TA 98, -S9, 200 μg/well): 0.2 | CFU(x±SD) (TA 98; TA 98, -S9, 400 μg/well): 0±1 CFU | Fold Change (TA 98; TA 98, -S9, 400 μg/well): 0.1 | CFU(x±SD) (WP2uvrA (pKM101); +S9, 25 μg/well): 29 ±4 CFU | Fold Change (WP2uvrA (pKM101); +S9, 25 μg/well): 0.9 | CFU(x±SD) (WP2uvrA (pKM101); +S9, 50 μg/well): 26 ±4 CFU | Fold Change (WP2uvrA (pKM101); +S9, 50 μg/well): 0.8 | CFU(x±SD) (WP2uvrA (pKM101); +S9, 100 μg/well): 26 ±3 CFU | Fold Change (WP2uvrA (pKM101); +S9, 100 μg/well): 0.8 | CFU(x±SD) (WP2uvrA (pKM101); +S9, 200 μg/well): 29 ±3 CFU | Fold Change (WP2uvrA (pKM101); +S9, 200 μg/well): 0.9 | CFU(x±SD) (WP2uvrA (pKM101); +S9, 400 μg/well): 28 ±3 CFU | Fold Change (WP2uvrA (pKM101); +S9, 400 μg/well): 0.9 | CFU(x±SD) (WP2uvrA (pKM101); -S9, 25 μg/well): 22±2 CFU | Fold Change (WP2uvrA (pKM101); -S9, 25 μg/well): 1 | CFU(x±SD) (WP2uvrA (pKM101); -S9, 50 μg/well): 23±4 CFU | Fold Change (WP2uvrA (pKM101); -S9, 50 μg/well): 1 | CFU(x±SD) (WP2uvrA (pKM101); -S9, 100 μg/well): 21±1 CFU | Fold Change (WP2uvrA (pKM101); -S9, 100 μg/well): 0.9 | CFU(x±SD) (WP2uvrA (pKM101); -S9, 200 μg/well): 24±3 CFU | Fold Change (WP2uvrA (pKM101); -S9, 200 μg/well): 1 | CFU(x±SD) (WP2uvrA (pKM101); -S9, 400 μg/well): 23±1 CFU | Fold Change (WP2uvrA (pKM101); -S9, 400 μg/well): 1
